Consider one compound from patent US4112097A, “Antihypertensive agents” (Abbott Laboratories, priority 1977, dated 1978).

Counter-ions that a name gives are not always drawn.

This data set in a line: physchem. The note with it: water.

Description: The water in the filtrate was removed in vacuo and the residue weighed and found to be 16.7 mg.

The compound `COc1cc2nc(N3CCN(C(=O)C4CCCCO4)CC3)nc(N)c2cc1OC` (stereo not shown) [2-[4(Tetrahydropyran-2-Carbonyl)Piperazinyl]-4-Amino-6,7-Dimethoxyquinazoline Hydrochloride] yielded a solubility of 56.5 mg/mL.

As a reminder, the solubility is the concentration that dissolves in the medium under given conditions.
